What all share (type): cell-based
One data set has as its system WT E14 mES cells. In words: Clonogenic survival assay, mES cells. Particulars: Mus musculus, read-out: IC50 (clonogenic survival). The text has this: Human mammary epithelial cell lines used included non-tumorigenic diploid MCF-10A, HMEC-hTERT and tumorigenic MDA-MB-468 (basal) and MCF-7 (luminal). […] Blood samples were obtained from normal donor participants. The participants provided written informed consent to IRB protocol #95–054 approved by the Institutional Review Board at MSKCC. The original signed consent is then sent to the research participant’s medical record and a copy of the consent is given to the participant. The EBV-transformed B-lymphocyte cell line (EBV-BL) was generated by transformation of peripheral blood mononuclear cells (PBMC) with the B95.8 strain of EBV, as previously described. Primary T cells were generated from PBMC from two normal donors by non-specific activation with phytohemagglutinin and cultured in RPMI1640 and human serum AB for 4–14 days before use. E14 mES cell line was provided by M. Hooper, Brca1^-/- 236.44 mES cell line was provided by B. H. Koller, Brca2^lex1/lex2 mES cell line was provided by P. Hasty and Lexicon Genetics. E14 wild-type, Brca1^-/- 236.44, and Brca2^lex1/lex2 mES cell lines were cultured in standard ES media. Brca1^-/- 236.44 cells express a BRCA1 peptide deleted for sequences encoded by exon 11 [52], while Brca2^lex1/lex2 cells express a BRCA2 peptide deleted for the terminal exon 27 [53]. […] Veliparib and BSI-201 were purchased from Chemie Tek. The compounds were dissolved in DMSO and PBS. For clonogenic survival assays, MCF-10A (1000 cells), HMEC-hTERT (1000 cells), MDA-MB-468 (1500 cells) and mouse ES cell (2000 cells) were seeded, vehicle control or inhibitors were added at the indicated concentration 24 hours after seeding and changed every three days for continuous treatment. At 7–14 days, colonies were fixed with methanol and stained with Giemsa. For EBV-BL (6 × 10^6) and primary T cells (3.6 × 10^6) were continuously exposed to the indicated concentration of drug for 10 days at 0.6 × 10^6 cells/ml. Viable cells were scored by trypan blue exclusion.

Data set [1] deals with repair-proficient human cells. In words: SCE assay, summary over the human cell types. As to conditions: primary T cells; brief exposure. From the text:
Human mammary epithelial cell lines used included non-tumorigenic diploid MCF-10A, HMEC-hTERT and tumorigenic MDA-MB-468 (basal) and MCF-7 (luminal). […] Blood samples were obtained from normal donor participants. The participants provided written informed consent to IRB protocol #95–054 approved by the Institutional Review Board at MSKCC. The original signed consent is then sent to the research participant’s medical record and a copy of the consent is given to the participant. The EBV-transformed B-lymphocyte cell line (EBV-BL) was generated by transformation of peripheral blood mononuclear cells (PBMC) with the B95.8 strain of EBV, as previously described. Primary T cells were generated from PBMC from two normal donors by non-specific activation with phytohemagglutinin and cultured in RPMI1640 and human serum AB for 4–14 days before use. E14 mES cell line was provided by M. Hooper, Brca1^-/- 236.44 mES cell line was provided by B. H. Koller, Brca2^lex1/lex2 mES cell line was provided by P. Hasty and Lexicon Genetics. E14 wild-type, Brca1^-/- 236.44, and Brca2^lex1/lex2 mES cell lines were cultured in standard ES media. […] Viable cells were scored by trypan blue exclusion.
To prepare metaphase spreads, exponentially growing cells were treated with 0.1–0.3 μg/ml of colcemid for 1–6 hr. […] To visualize SCEs, the doubling time for each cell type was determined. […]

The subject of data set [2] is repair-proficient human cells. As to the kind of experiment: Chromatid-type aberrations, summary over the human cell types. How it is done: To prepare metaphase spreads, exponentially growing cells were treated with 0.1–0.3 μg/ml of colcemid for 1–6 hr. Cells were collected and incubated in hypotonic solution (0.56% KCl), fixed in methanol: acetic acid (3:1), spotted to slides and air-dried. To measure chromosomal aberrations, the slides were stained with 2% Giemsa/Sorensen’s buffer. To visualize SCEs, the doubling time for each cell type was determined. Cells were incubated with 10 μM BrdU for two cell cycles. After metaphase spreads were prepared, the slides were treated with 0.5 μg/ml Hoechst 33258. The slides were exposed to black light for 20–60 min, incubated at 60°C for 2 hr, and stained in 4–10% Giemsa/Sorensen’s buffer.

Turning to `O=C(c1cc(Cc2n[nH]c(=O)c3ccccc23)ccc1F)N1CCN(C(=O)C2CC2)CC1` [olaparib], in the data set on WT E14 mES cells, the IC50 worked out at 600 nM. Moreover, the “average SCEs per metaphase” value in data set [1] is reported as ~ 40. The “increase of chromatid aberrations” value in data set [2] (clinically relevant doses (abstract)) is given as 2-6 fold. The radial chromosomes identified in data set [2] (olaparib-treated cells, all cell types (1 in untreated)) worked out at 12.

These data come from PMC4948780, “PARP Inhibitors in Clinical Use Induce Genomic Instability in Normal Human Cells” (PLoS ONE, 2016).
